# pIC50: −log10 of the molar value.
# Key:
# [1] = test system: HT-29 colon adenocarcinoma cells; assay: Antiproliferative activity (NCI procedure, sulforhodamine B), HT-29; format: cell-based, human; settings: Homo sapiens, HT-29, unit inferred, tested 781 nM to 100 μM, 48 h
# Protocol: (§1) The antiproliferative activity of compounds 3a-b, 4a-e, 5a-e and 6a-e was subsequently evaluated using the human HT-29 colon adenocarcinoma and the A549 adenocarcinoma alveolar epithelial cancer cell lines, the HaCaT spontaneously transformed aneuploid immortal keratinocyte cell line and the HDFn neonatal dermal fibroblast cell line (Table 2). Cell growth inhibition was assessed according to the NCI/NIH Developmental Therapeutics Program.
# (§2) The antiproliferative activity assay of all compounds was assessed using the procedure recommended by the National Cancer Institute for its drug screening program with minor modifications. Briefly, 96-well microtiter plates were seeded with 75 μL of a suspension of either HaCaT (5×10^3), HT-29 (3.0×10^3), A549 (3.0×10^3) or HDFn (3×10^3) cells per well in DMEM and incubated for 24 h at 37° C. in a moisture-saturated atmosphere containing 5% CO2. Compounds freshly solubilized in DMSO (40 mM) were diluted in fresh DMEM, and 75 μL aliquots containing serially diluted concentrations of the compound were added. Final compound concentrations ranged from 100 μM to 781 nM. DMSO was maintained at a concentration of <0.5% (v/v) to avoid any related cytotoxicity. Plates were subsequently incubated for 48 h. Cell growth was then stopped by the addition of cold trichloroacetic acid to the wells (10% w/v, final concentration), followed by a 1 h incubation period at 4° C. The plates were washed 4-times with water. A sulforhodamine B solution (75 μL; 0.1% w/v) in acetic acid (1%) was subsequently added to each well and the plates incubated over a 15 min period while at room temperature. After staining, any unbound dye was removed by washing 4-times with an acetic acid solution (1%). Bound dye was solubilized in 20 mM Tris base and the absorbance was measured at an optimal wavelength (530-568 nm) using a μQuant® Universal microplate spectrophotometer (BioTek, Winooski, Vt.). The measurements for treated cells were compared with measurements from control cell plates fixed on treatment day and the percentage of cell growth inhibition was calculated for each drug. The experiments were performed at least twice in triplicate. The assays were considered valid when the coefficient of variation for a given set of conditions and within the same experiment was <10%.
# [2] = test system: HaCaT keratinocyte cell line; assay: Antiproliferative activity (NCI procedure, sulforhodamine B), HaCaT; format: cell-based, human; settings: Homo sapiens, HaCaT, unit inferred, tested 781 nM to 100 μM, 48 h
# Protocol: as §1, §2
# [3] = test system: HDFn neonatal dermal fibroblast cell line; assay: Antiproliferative activity (NCI procedure, sulforhodamine B), HDFn; format: cell-based, human; settings: Homo sapiens, Fibroblast, unit inferred, tested 781 nM to 100 μM, 48 h
# Protocol: as §1, §2
# [4] = test system: A549 adenocarcinoma alveolar epithelial cancer cells; assay: Antiproliferative activity (NCI procedure, sulforhodamine B), A549; format: cell-based, human; settings: Homo sapiens, A549, unit inferred, tested 781 nM to 100 μM, 48 h
# Protocol: as §1, §2
SMILES,melting point [°C],pIC50 ([1]; Table 5),pIC50 ([2]; Table 5),pIC50 ([3]; Table 5),pIC50 ([4]; Table 5),pIC50 ([1]; Table 6),pIC50 ([2]; Table 6),pIC50 ([3]; Table 6),pIC50 ([4]; Table 6),pIC50 ([1]; Table 8),pIC50 ([2]; Table 8),pIC50 ([3]; Table 8),pIC50 ([4]; Table 8)
CCCNC(=O)Nc1cccc(I)c1 [Compound 6],132 to 136,4.06,4.00,4.35,4.10,–,–,–,–,–,–,–,–
CCCNC(=O)Nc1cccc(C(C)(C)C)c1 [Compound 12],138 to 141,< 4.00,< 4.00,4.09,< 4.00,–,–,–,–,–,–,–,–
CC(C)NC(=O)Nc1ccc(C2CCCCC2)cc1 [Compound 13],163 to 170,4.24,< 4.00,4.23,4.22,–,–,–,–,–,–,–,–
CCCNC(=O)Nc1ccc(C2CCCCC2)cc1 [Compound 15],166 to 168,< 4.00,< 4.00,4.23,< 4.00,–,–,–,–,–,–,–,–
CC(C)NC(=O)Nc1cccc(C2CCCCC2)c1 [Compound 16],178 to 181,< 4.00,< 4.00,4.52,< 4.00,–,–,–,–,–,–,–,–
CCCNC(=O)Nc1cccc(C2CCCCC2)c1 [Compound 18],131 to 134,4.62,4.49,4.64,4.68,–,–,–,–,–,–,–,–
CCNC(=O)Nc1cccc(C2CCCCC2)c1 [Compound 66],141 to 144,–,–,–,–,4.51,4.43,4.51,4.24,–,–,–,–
O=C(Nc1cccc(C2CCCCC2)c1)NC1CC1 [Compound 67],138 to 144,–,–,–,–,4.59,4.77,4.60,4.43,–,–,–,–
O=C(NCC1CCC1)Nc1cccc(C2CCCCC2)c1 [Compound 68],115 to 120,–,–,–,–,5.25,5.43,4.92,5.10,–,–,–,–
O=C(Nc1cccc(C2CCCCC2)c1)NC1CCCC1 [Compound 69],132 to 137,–,–,–,–,5.05,5.40,5.12,4.92,–,–,–,–
S=C(NCC1CCC1)Nc1ccc(C2CCCCC2)cc1 [Compound 88],144 to 152,–,–,–,–,–,–,–,–,4.69,4.49,4.80,4.82
S=C(Nc1ccc(C2CCCCC2)cc1)NC1CCCC1 [Compound 89],146 to 152,–,–,–,–,–,–,–,–,4.67,4.46,4.84,4.70
CC(C)(C)c1cccc(NC(=S)NCC2CCC2)c1 [Compound 90],105 to 111,–,–,–,–,–,–,–,–,4.69,4.46,4.74,4.76
CC(C)(C)c1cccc(NC(=S)NC2CCCC2)c1 [Compound 91],170 to 180,–,–,–,–,–,–,–,–,4.68,4.50,4.79,4.71
S=C(Nc1ccc(C2CCCCC2)cc1)NC1CC1 [Compound 93],157 to 165,–,–,–,–,–,–,–,–,4.51,4.07,4.08,4.68
CC(C)(C)c1ccc(NC(=S)NCC2CCC2)cc1 [Compound 96],129 to 146,–,–,–,–,–,–,–,–,4.36,< 4.00,< 4.00,4.63
CC(C)(C)c1ccc(NC(=S)NC2CCCC2)cc1 [Compound 97],142 to 154,–,–,–,–,–,–,–,–,4.54,4.40,4.65,4.58
S=C(Nc1cccc(I)c1)NC1CCCC1 [Compound 98],136 to 147,–,–,–,–,–,–,–,–,4.63,4.48,4.79,4.66
S=C(NCC1CCC1)Nc1cccc(I)c1 [Compound 99],136 to 147,–,–,–,–,–,–,–,–,4.57,4.45,4.71,4.58
CC(C)(C)c1cccc(NC(=S)NC2CC2)c1 [Compound 100],125 to 140,–,–,–,–,–,–,–,–,4.12,< 4.00,< 4.00,4.15

# The next lines start with results.
melting point [°C],SMILES,pIC50 ([1]; Table 5),pIC50 ([2]; Table 5),pIC50 ([3]; Table 5),pIC50 ([4]; Table 5),pIC50 ([1]; Table 6),pIC50 ([2]; Table 6),pIC50 ([3]; Table 6),pIC50 ([4]; Table 6),pIC50 ([1]; Table 8),pIC50 ([2]; Table 8),pIC50 ([3]; Table 8),pIC50 ([4]; Table 8)
179 to 199,CC(C)(C)NC(=O)Nc1ccc(I)cc1 [Compound 2],4.48,4.35,4.57,4.43,–,–,–,–,–,–,–,–
197 to 199,CCCNC(=O)Nc1ccc(I)cc1 [Compound 3],4.28,4.02,4.09,4.08,–,–,–,–,–,–,–,–
153 to 156,CC(C)NC(=O)Nc1cccc(I)c1 [Compound 4],< 4.00,4.02,4.23,4.10,–,–,–,–,–,–,–,–
189 to 193,CC(C)(C)NC(=O)Nc1cccc(I)c1 [Compound 5],4.09,< 4.00,4.76,4.21,–,–,–,–,–,–,–,–
152 to 155,CC(C)NC(=O)Nc1ccc(C(C)(C)C)cc1 [Compound 7],4.13,< 4.00,4.24,4.08,–,–,–,–,–,–,–,–
167 to 174,CC(C)(C)NC(=O)Nc1ccc(C(C)(C)C)cc1 [Compound 8],4.45,4.26,4.84,4.47,–,–,–,–,–,–,–,–
147 to 151,CCCNC(=O)Nc1ccc(C(C)(C)C)cc1 [Compound 9],4.26,< 4.00,4.98,4.17,–,–,–,–,–,–,–,–
146 to 149,CC(C)NC(=O)Nc1cccc(C(C)(C)C)c1 [Compound 10],4.07,< 4.00,4.03,4.01,–,–,–,–,–,–,–,–
161 to 170,CC(C)(C)NC(=O)Nc1cccc(C(C)(C)C)c1 [Compound 11],4.46,4.33,4.88,4.44,–,–,–,–,–,–,–,–
182 to 189,CC(C)(C)NC(=O)Nc1ccc(C2CCCCC2)cc1 [Compound 14],4.59,4.45,4.76,4.73,–,–,–,–,–,–,–,–
195 to 203,CC(C)(C)NC(=O)Nc1cccc(C2CCCCC2)c1 [Compound 17],4.23,4.06,4.79,4.36,–,–,–,–,–,–,–,–
174 to 176,"CCC(CC)NC(=O)Nc1ccc(I)cc1 [Compound 64, 1-(4-Iodophenyl)-3-(pentan-3-yl)urea]",–,–,–,–,–,–,–,–,–,–,–,–
185 to 187,"CC(C)(C)CNC(=O)Nc1ccc(C(C)(C)C)cc1 [Compound 65, 1-(4-(t-Butyl)phenyl)-3-neopentylurea]",–,–,–,–,–,–,–,–,–,–,–,–
98 to 108,S=C(NCC1CCC1)Nc1ccc(I)cc1 [Compound 92],–,–,–,–,–,–,–,–,4.57,4.32,4.62,4.58
109 to 115,CCNC(=S)Nc1ccc(C(C)(C)C)cc1 [Compound 94],–,–,–,–,–,–,–,–,4.04,< 4.00,4.03,4.15
119 to 143,CC(C)(C)c1ccc(NC(=S)NC2CC2)cc1 [Compound 95],–,–,–,–,–,–,–,–,4.19,4.02,4.22,4.24
166 to 180,S=C(Nc1ccc(I)cc1)NC1CC1 [Compound 101],–,–,–,–,–,–,–,–,4.20,< 4.00,< 4.00,4.19
